2 molecules from PMC11705089 (Nucleic Acids Research, 2025) can be followed below.

Assay [1] deals with T1, DgoR (WT DgoR-6XHis) (Escherichia coli, UniProt P31460).
T1 sequence (P31460 1-229): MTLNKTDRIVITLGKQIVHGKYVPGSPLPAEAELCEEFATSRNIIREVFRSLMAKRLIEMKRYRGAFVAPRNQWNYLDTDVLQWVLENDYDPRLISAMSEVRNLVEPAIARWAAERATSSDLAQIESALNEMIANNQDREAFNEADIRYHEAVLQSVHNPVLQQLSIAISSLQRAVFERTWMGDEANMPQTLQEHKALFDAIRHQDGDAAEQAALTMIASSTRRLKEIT
Description: label-free microscale thermophoresis. The format is binding.

Assay [2] addresses T2, DgoR (WT DgoR-6XHis) (Escherichia coli, UniProt P31460, A97V).
T2 sequence (P31460 1-229 A97V): T1 sequence (P31460 1-229) with A97V
As to the kind of experiment: label-free microscale thermophoresis. Type of assay: binding.

Assay [3] deals with T3, DgoR (WT DgoR-6XHis) (Escherichia coli, UniProt P31460, S171L).
T3 sequence (P31460 1-229 S171L): T1 sequence (P31460 1-229) with S171L
As to the kind of experiment: label-free microscale thermophoresis. Type of assay: binding. In general terms: MST reads how a fluorescent partner responds to local heating, with and without ligand.

In assay [4] the target is T4, DgoR (WT DgoR-6XHis) (Escherichia coli, UniProt P31460, M188I).
T4 sequence (P31460 1-229 M188I): T1 sequence (P31460 1-229) with M188I
Description: label-free microscale thermophoresis. Type of assay: binding.

The target of assay [5] is DgoR-6XHis (wild-type DgoR, transcriptional repressor of D-galactonate metabolism in Escherichia coli) (Escherichia coli) (UniProt P31460). Description: SEC.

Positions count from the first letter of the chain named.

Regarding `O=C(O)[C@H](O)[C@@H](O)[C@@H](O)[C@H](O)CO` [D-galactonate], the dissociation constant (Kd) at DgoR (WT DgoR-6XHis) [1] came to 8.4 ± 1.3 µM; at DgoR (WT DgoR-6XHis) [2] it was 3.3 ± 0.3 µM; on DgoR (WT DgoR-6XHis) [3], 20.1 ± 0.6 µM; on DgoR (WT DgoR-6XHis) [4], 11.3 ± 0.9 µM.
In turn, “DgoR-6XHis (wild-type DgoR, transcriptional repressor of D-galactonate metabolism in Escherichia coli) (from UniProt P31460 1-229) (natural protein)” displayed a stoichiometry N in assay [5] of 2.

The Kd is a measure of binding affinity in units of concentration. High values mean lower affinity, low ones higher affinity. By stoichiometry N is commonly meant a count of units in the complex or per binding partner.
